Columns and labels:
[1] = DPPH radical scavenging assay; assay type: biochemical; conditions: for DPPH radical scavenging activity (% inhibition): Standard = ascorbic acid (vitamin C)
Protocol: The oxidative scavenging activity of the ligand and its complexes was evaluated by DPPH (4 mg/100 ml methanol) Zengin, et al.[16]. Briefly, equal volumes of different concentrations ([…], 0.1, 0.2, 0.3, 0.4 and 0.5 mg/mL DMSO) of the tested components were added to DPPH reagent using ascorbic acid as a reference. All the investigated tests were shaken and incubated at room temperature in the dark for 30 min. The decrease in DPPH radicals was evaluated at 490 nm using an ELISA reader. Each test was performed in triplicate. The radical scavenging power was estimated as a percentage of DPPH inhibition using the equation: %inhibition=[(A \, control-A \, sample)/A \, control]×100.

[2] = Nitric oxide scavenging assay (sodium nitroprusside / Griess reagent); assay type: biochemical; conditions: Standard = ascorbic acid
Protocol: The nitric oxide scavenging activity of the ligand and its complexes was evaluated following a reported procedure Padmaja, et al.[17]. […] The samples were added to 150 µL Griess reagent (1% sulfanilamide and 0.1% naphthyl ethylenediamine hydrochloride in 2.5% orthophosphoric acid) and incubated at 25 °C for 30 min. The absorbance (A) was read at 540 nm using an ELISA reader. The experiment was repeated in triplicate, and ascorbic acid was used as a standard. The scavenged activity of NO was calculated using the equation %inhibition=[(A \, control-A \, sample)/A \, control]×100.

[3] = Reducing power assay (ferricyanide, absorbance at 700 nm); assay type: biochemical; conditions: Standard = ascorbic acid
Protocol: The reducing power capacity of the investigated compounds was evaluated by the method of Oyaizu[18]. Then, 0.5 mL of different concentrations ([…], 0.1, 0.2, 0.3, 0.4 and 0.5 mg/mL in DMSO) was added to 0.5 mL of sodium phosphate buffer (0.2 M, pH 6.6) and 0.5 mL of 1% potassium ferricyanide. The samples were incubated at 50 °C for 20 min. Then, 0.5 mL trichloroacetic acid (10%) was added and centrifuged at 3000 rpm for 15 min. The supernatant (1.0 mL) was incubated with 1.0 mL H2O2 and 0.2 mL of 1% ferric chloride for 30 min. The absorbance of the samples was measured at 700 nm. Ascorbic acid was used as a standard. An increase in the absorbance value indicates a higher reducing power.

[4] = test system: red blood cell (RBC) membrane; assay: Membrane stabilization (antihemolytic) activity, hypotonic solution-induced RBC lysis; assay type: cell-based, human
Protocol: Anti-inflammatory activities were evaluated through the antihemolytic membrane stabilization effect of the ligand and its metal complexes using a red blood cell (RBC) membrane stabilization method. Fresh whole blood samples were collected in anticoagulant tubes from a healthy volunteer who was not treated with any nonsteroidal anti-inflammatory drugs (NSAIDs) for 2 weeks before the experiment. Erythrocytes were extracted by centrifugation at 3000 rpm for 5 min. The anticoagulated cells were washed 3 times with 0.9% saline and centrifuged at 3000 rpm for 10 min. An RBC suspension (40% v/v) was prepared using isotonic saline phosphate buffer (0.15 M NaCl and 10 mM sodium phosphate buffer, pH 7.4). One milliliter of phosphate buffer (0.15 M, pH 7.4) was added to one mL of various concentrations of the tested compounds (0.05, 0.1, 0.2, 0.3, 0.4 and 0.5 mg/mL DMSO) and 2 mL sodium chloride solution (0.25%). In the control tube, one distilled water was used instead of the tested compounds. Different concentrations of nonsteroidal anti-inflammatory drug (diclofenac potassium) were used as standards. Then, 100 µL of RBC suspension was added to each tube and incubated at room temperature for 60 min. After incubation, the samples were centrifuged for 10 min at 3000 rpm. The absorbance of the supernatant was detected at 540 nm using an ELISA reader. The inhibition of hemolysis in the samples was evaluated according to the equation: %Inhibition \, of \, hemolysis=A \, control-A \, sample/A \, control×100.

[5] = test system: Acetylcholinesterase (AChE); assay: AChE inhibition (Ellman method, brain homogenate); assay type: biochemical; conditions: Standard = donepezil
Protocol: Acetylcholinesterase (AChE) activity was evaluated according to a previously reported method. Briefly, 10 μL of different concentrations of the tested compounds (test) or organic solvent (control) was added to 130 μL of phosphate buffer (pH 7.4, 0.1 M) and 20 μL of brain homogenate and then incubated at 37 °C for 45 min. Then, 5 μL of […] (75 mM) was added and incubated for 15 min at 37 °C. After incubation, […] of 0.32 mM DTNB was added. […] The percent inhibition of AChE was calculated as follows: %inhibition \, of \, […]=[A \, control--A \, sample/A \, control]×100.

Escherichia coli = assay: Antimicrobial disc diffusion, E. coli; assay type: cell-based; conditions: Nil = zero inhibition
Protocol: (§1) The ligand and its metal(II) complexes were evaluated for antimicrobial activity against two strains, gram-positive bacteria (Staphylococcus aureus and Staphylococcus faecalis), gram-negative bacteria (Escherichia coli and Pseudomonas aeruginosa) and pathogenic fungi (Candida albicans), using DMSO as a negative control. […] The antimicrobial activity of the tested samples was determined using a modified Kirby-Bauer disc diffusion method. All the synthesized compounds were dissolved to prepare a stock solution of 1 mg/mL using DMSO. Stock solution was aseptically transferred, and two-fold diluted to have solutions of different concentrations. The antibacterial and antifungal activities of test compounds were done by filter paper disc method[21] and the activities were determined by measuring the diameters of the inhibition zone (mm). Media with DMF was set up as a control. All cultures were routinely maintained on NA (nutrient agar) and incubated at 37 °C. The inoculums of bacteria were performed by growing the culture in NA broth at 37 °C for overnight. Approximately, 0.1 mL of diluted bacterial or fungal culture suspension was spread with the help of spreader on NA plates uniformly. Solutions of the tested compounds and reference drugs were prepared by dissolving 10 mg of the compound in 10 mL DMF. […]

Pseudomonas aeruginosa = assay: Antimicrobial disc diffusion, P. aeruginosa; assay type: cell-based; conditions: Nil = zero inhibition
Protocol: as §1

Staphylococcus aureus = assay: Antimicrobial disc diffusion, S. aureus; assay type: cell-based; conditions: Nil = zero inhibition
Protocol: as §1

Staphylococcus faecalis = assay: Antimicrobial disc diffusion, S. faecalis; assay type: cell-based; conditions: Nil = zero inhibition
Protocol: as §1

Candida albicans = assay: Antifungal disc diffusion, C. albicans; assay type: cell-based; conditions: Nil = zero inhibition
Protocol: as §1

[6] = Homo sapiens, Erythrocyte, read-out: Inhibition of RBC hemolysis (membrane stabilization)

Oc1ccc2ccccc2c1/C=N/c1ccc(Cc2ccc(/N=C/c3c(O)ccc4ccccc34)cc2)cc1 [Ligand]
DPPH radical scavenging activity (% inhibition) ([1]; 0.05 mg/mL): 11.5 ± 0.95%
DPPH radical scavenging activity (% inhibition) ([1]; 0.1 mg/mL): 17.53 ± 0.85%
DPPH radical scavenging activity (% inhibition) ([1]; 0.2 mg/mL): 25.33 ± 0.81%
DPPH radical scavenging activity (% inhibition) ([1]; 0.3 mg/mL): 31.13 ± 0.65%
DPPH radical scavenging activity (% inhibition) ([1]; 0.4 mg/mL): 38.83 ± 0.81%
DPPH radical scavenging activity (% inhibition) ([1]; 0.5 mg/mL): 44.43 ± 0.70%
NO scavenging (% inhibition) ([2]; 0.05 mg/mL): 15.8 ± 0.78%
NO scavenging (% inhibition) ([2]; 0.1 mg/mL): 21.37 ± 1.38%
NO scavenging (% inhibition) ([2]; 0.2 mg/mL): 27.13 ± 1.58%
NO scavenging (% inhibition) ([2]; 0.3 mg/mL): 37.27 ± 0.97%
NO scavenging (% inhibition) ([2]; 0.4 mg/mL): 42.7 ± 1.78%
NO scavenging (% inhibition) ([2]; 0.5 mg/mL): 47.65 ± 1.49%
Reducing power (absorbance at 700 nm) ([3]; 0.05 mg/mL): 0.10 ± 0.01
Reducing power (absorbance at 700 nm) ([3]; 0.1 mg/mL): 0.13 ± 0.001
Reducing power (absorbance at 700 nm) ([3]; 0.2 mg/mL): 0.17 ± 0.01
Reducing power (absorbance at 700 nm) ([3]; 0.3 mg/mL): 0.20 ± 0.01
Reducing power (absorbance at 700 nm) ([3]; 0.4 mg/mL): 0.23 ± 0.001
Reducing power (absorbance at 700 nm) ([3]; 0.5 mg/mL): 0.29 ± 0.01
inhibition at 50 µg/mL [4, 6]: 11.8 ± 1.01%
inhibition at 100 µg/mL [4, 6]: 19.8 ± 0.75%
inhibition at 200 µg/mL [4, 6]: 26.9 ± 0.44%
inhibition at 300 µg/mL [4, 6]: 32.7 ± 0.8%
inhibition at 400 µg/mL [4, 6]: 38.5 ± 1.16%
inhibition at 500 µg/mL [4, 6]: 43.4 ± 0.68%
AChE percent inhibition ([5]; 0.05 mg/mL): 17.70 ± 1.04%
AChE percent inhibition ([5]; 0.1 mg/mL): 21.83 ± 1.5%
AChE percent inhibition ([5]; 0.2 mg/mL): 27.27 ± 1.16%
AChE percent inhibition ([5]; 0.3 mg/mL): 32.90 ± 1.61%
AChE percent inhibition ([5]; 0.4 mg/mL): 38.57 ± 1.0%
AChE percent inhibition ([5]; 0.5 mg/mL): 41.97 ± 1.08%
Inhibition zone diameter (Escherichia coli): Nil
Inhibition zone diameter (Pseudomonas aeruginosa): Nil
Inhibition zone diameter (Staphylococcus aureus): Nil
Inhibition zone diameter (Staphylococcus faecalis): Nil
Inhibition zone diameter (Candida albicans): Nil

O=C1O[C@H]([C@@H](O)CO)C(O)=C1O [ascorbic acid, reference compound]
DPPH IC50 [1]: 145 µg/mL

C[C@@H]1[C@H](O)[C@@H](C)/C=C/C=C/C=C/C=C/C=C/C=C/C=C/[C@H](O[C@@H]2O[C@H](C)[C@@H](O)[C@H](N)[C@@H]2O)C[C@@H]2O[C@](O)(C[C@@H](O)C[C@@H](O)[C@H](O)CC[C@@H](O)C[C@@H](O)CC(=O)O[C@H]1C)C[C@H](O)[C@H]2C(=O)O [Amphotericin B, reference compound]
Inhibition zone diameter (Candida albicans): 20 mm/mg sample

O=C([O-])Cc1ccccc1Nc1c(Cl)cccc1Cl.[K+] [diclofenac potassium, reference compound]
Antihemolytic activity toward RBCs IC50 ([4]; hypotonic solution-induced lysis): 120 µg/mL

CN(C)[C@@H]1C(O)=C(C(N)=O)C(=O)[C@@]2(O)C(O)=C3C(=O)c4c(O)cccc4[C@@](C)(O)[C@H]3C[C@@H]12 [Tetracycline, reference compound]
Inhibition zone diameter (Escherichia coli): 32 mm/mg sample
Inhibition zone diameter (Pseudomonas aeruginosa): 33 mm/mg sample
Inhibition zone diameter (Staphylococcus aureus): 32 mm/mg sample
Inhibition zone diameter (Staphylococcus faecalis): 33 mm/mg sample
